Reference: patent US7423149B2, “Substituted n-aryl amidines as selective D1 dopamine receptor antagonists for the treatment of obesity and CNS disorders” (Schering Corporation, priority 2003, dated 2008)
Where two headings read alike, the source gives them in different places.

Assays:
[1] = target: T1, human Dopamine D1 receptor (Homo sapiens, UniProt P21728); assay: radioligand binding competition assay, displacement of [3H]SCH 23390 from D1 receptor (Ltk-cells membranes);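 for D1 binding and D2:D1 Selectivity: under 5 nM class also requires D2 to D1 selectivity above 500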
T1 construct: expressed in transfected cells; host or cells: Ltk- cells (mouse fibroblasts), membrane preparation
T1 sequence (P21728 whole entry): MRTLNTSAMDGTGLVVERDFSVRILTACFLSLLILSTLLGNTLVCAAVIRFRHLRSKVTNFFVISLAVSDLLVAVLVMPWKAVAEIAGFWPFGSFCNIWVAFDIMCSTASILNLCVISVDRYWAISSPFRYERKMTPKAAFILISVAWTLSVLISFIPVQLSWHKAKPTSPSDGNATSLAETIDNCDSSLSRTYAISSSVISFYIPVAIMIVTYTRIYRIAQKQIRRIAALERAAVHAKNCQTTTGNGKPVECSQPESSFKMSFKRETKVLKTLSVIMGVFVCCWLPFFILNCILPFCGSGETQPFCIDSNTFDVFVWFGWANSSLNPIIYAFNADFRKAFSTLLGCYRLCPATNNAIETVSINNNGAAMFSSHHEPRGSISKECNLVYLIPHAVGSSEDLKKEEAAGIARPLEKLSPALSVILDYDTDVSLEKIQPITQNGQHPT
Source text: (§1) Biological Activity: Compounds from this disclosure have been biologically characterized by their ability to displace a known D1-like selective ligand, [3H]SCH 23390 from the human Dopamine D1 receptor, and a known D2-like selective ligand, [3H] Methylspiperone, from the human Dopamine D2 and D4 receptors.
(§2) Affinity values (Ki) of compounds at human dopamine receptors were ascertained using radioligand binding competition assays. Cells expressing D1 (Ltk-cells), D2 (long variant, Ltk-cells), D4 (CHO cells) and D5 (GH4C1 cells) receptors were lysed in hypotonic buffer for membrane preparation. Membranes were incubated with various concentrations of test compound and 1 nM [3H] SCH 23390 (D1 and D5) and 0.2 nM [3H] Methylspiperone for (D2 and D4) assays. Non-specific binding was defined as binding in the presence of 10 micromolar of SCH 23390 for D1 and D5 assays and 10 micromolar butaclamol for D2 and D4 assays. Following incubation to equilibrium (1 hour at room temperature), bound radioligand was separated from free by rapid filtration. Bound radioactivity on the dried filters was quantified by liquid scintillation counting.
(§3) Selectivity is determined by dividing Ki for D2, D4 or D5 receptors by Ki for D1 receptor.

[2] = target: T2, human Dopamine D2 receptor (Homo sapiens, UniProt P14416); assay: radioligand binding competition assay, displacement of [3H] Methylspiperone from D2 receptor (long variant, Ltk-cells membranes); conditions: Ki for D2 divided by Ki for D1
T2 construct: expressed in transfected cells; host or cells: Ltk- cells (mouse fibroblasts), membrane preparation
T2 sequence (P14416 whole entry): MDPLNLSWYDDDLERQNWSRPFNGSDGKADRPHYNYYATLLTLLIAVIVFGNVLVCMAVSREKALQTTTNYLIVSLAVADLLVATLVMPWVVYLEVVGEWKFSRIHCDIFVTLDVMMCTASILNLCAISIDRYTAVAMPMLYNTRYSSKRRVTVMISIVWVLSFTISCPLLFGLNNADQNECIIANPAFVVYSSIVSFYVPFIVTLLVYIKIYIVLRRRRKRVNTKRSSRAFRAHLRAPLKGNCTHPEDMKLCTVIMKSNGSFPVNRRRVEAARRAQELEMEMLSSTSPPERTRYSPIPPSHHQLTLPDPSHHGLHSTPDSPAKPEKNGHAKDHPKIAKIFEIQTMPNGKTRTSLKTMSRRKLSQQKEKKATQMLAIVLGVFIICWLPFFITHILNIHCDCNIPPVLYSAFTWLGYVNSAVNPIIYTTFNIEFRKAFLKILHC
Source text: as §1, §2, §3

[3] = class combines Ki (D1) and, for A and B, D2:D1 selectivity (Ki D2 / Ki D1), read-out: D1 binding and D2:D1 Selectivity

Row | SMILES | Ki [1, 3] | Ki ([1]; human D1 receptor, [3H] SCH 23390, read-out: Ki (D1) value) | D2:D1 ratio value [2]
1 | CO/N=C(/C)c1ccc(-c2ccc(/C=C/C(=N)Nc3ccc(Cl)cc3)cc2)cc1 [Example 125, N-(4-chloro-phenyl)-3-[4′-(1-methoxyimino-ethyl)-biphenyl-4-yl]-acrylamidine] | 50 to 10000 nM |  | 
2 | N=C(/C=C/c1ccc(N2CCN(c3ccccc3)CC2)cc1)Nc1ccc(Cl)cc1 [Example 104] | 50 to 10000 nM |  | 
3 | N=C(Nc1ccc(Cl)cc1)c1ccc(-c2ccccc2)cc1 [Example 118] | 50 to 10000 nM |  | 
4 | N=C(/C=C/c1ccc(N2CCN(c3cccc(Cl)c3)CC2)cc1)Nc1ccc(Cl)cc1 [Example 93] | 50 to 10000 nM |  | 
5 | CC(C)(C)c1ccc(-c2ccc(/C=C/C(=N)Nc3ccc(Cl)cc3)cc2)cc1 [Example 131] | 50 to 10000 nM |  | 
6 | CN(C)c1ccc(/C=C/C(=N)Nc2ccc(Cl)cc2)c2ccccc12 [Example 101] | 50 to 10000 nM |  | 
7 | CCn1c2ccccc2c2cc(/C=C/C(=N)Nc3ccc(Cl)cc3)ccc21 [Example 100] | 50 to 10000 nM |  | 

Next, values leading:

Row | Ki [1, 3] | Ki ([1]; human D1 receptor, [3H] SCH 23390, read-out: Ki (D1) value) | D2:D1 ratio value [2] | SMILES
8 | < 5 nM | 0.9 nM | 1258.5 | N=C(/C=C/c1ccc(N2CCNCC2)cc1Cl)Nc1ccc(Cl)cc1 [Example 42, (E)-N-(4-Chlorophenyl)-3-[2-chloro-4(piperazin-1-yl)phenyl]-2-propenimidamide]
9 | 10 to 50 nM |  |  | COc1ccc(/C=C/C(=N)Nc2ccc(Cl)cc2)cc1OC [Example 69]
10 | 10 to 50 nM |  |  | COc1ccc(/C=C/C(=N)Nc2ccc(Cl)cc2)c(Cl)c1OC [Example 29]
11 | 10 to 50 nM |  |  | N=C(/C=C/c1ccc(-c2ccccc2)cc1)Nc1ccc(Cl)cc1 [Example 16]
12 | 10 to 50 nM |  |  | CCOc1ccc(CN2CCN(c3ccc(/C=C/C(=N)Nc4ccc(Cl)cc4)c(Cl)c3)CC2)cc1 [Example 62]
